Measured values published in patent US8609833B2, “Purine derivatives as adenosine A1 receptor agonists and methods of use thereof” (Inotek Pharmaceuticals Corporation, priority 2004, dated 2013).
pKi: −log10 of the molar value.

Legend:
[1] = biological target: human recombinant A2A adenosine receptor (Homo sapiens (Human), UniProt P29274); assay: Adenosine A2A receptor binding, displacement of [3H]NECA; conditions: displacement of specific [3H]NECA binding, CHO cells; geometric mean
Experimental: (§1) Membranes for radioligand binding experiments were prepared from fresh or frozen cells as described in Klotz et al., Naunyn-Schmiedeberg's Arch. […] The cell suspension was then homogenized in ice-cold hypotonic buffer (5 mM Tris/HCl, 2 mM EDTA, pH 7.4) and the homogenate was spun for 10 minutes (4° C.) at 1,000 g.
(§2) Nonspecific binding was determined in the presence of 100 μM R-PIA and 1 mM theophylline, respectively. For details see Klotz et al., Naunyn-Schmiedeberg's Arch.

[2] = biological target: human recombinant A3 adenosine receptor (Homo sapiens (Human), UniProt P0DMS8); assay: Adenosine A3 receptor binding, displacement of [3H]NECA; conditions: displacement of specific [3H]NECA binding, HEK cells; geometric mean
Sequence of human recombinant A3 adenosine receptor (P0DMS8 whole entry): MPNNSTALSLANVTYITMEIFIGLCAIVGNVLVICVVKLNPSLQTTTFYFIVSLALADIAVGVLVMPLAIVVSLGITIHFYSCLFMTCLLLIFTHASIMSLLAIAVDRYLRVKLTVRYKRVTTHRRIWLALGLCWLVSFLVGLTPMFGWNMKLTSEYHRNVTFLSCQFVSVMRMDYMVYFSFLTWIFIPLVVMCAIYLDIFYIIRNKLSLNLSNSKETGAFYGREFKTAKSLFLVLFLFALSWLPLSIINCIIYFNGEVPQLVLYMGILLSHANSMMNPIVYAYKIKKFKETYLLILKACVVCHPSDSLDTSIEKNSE
Experimental: as §1, §2

male Wistar rats = assay: Mechanically induced pain threshold in carrageenan rat model; assay type: in vivo; conditions: intrathecal, 5.0 mg/kg (FIG. 8); 15-120 min
Experimental: Male Wistar rats (each weighing between 200-250 g, kept under pathogen-free conditions at 24-25° C. and provided with standard rat chow and water ad libitum) were anaesthetized via intraperitoneal administration of pentobarbital (50 mg/kg) and placed in a stereotaxic frame. The atlanto-occipital membrane was exposed and a PE-10 catheter (7.5 cm) was inserted through an incision into the subarachnoidal space. The external end of the catheter was then fixed to the skull, the wound was closed, and the rats were allowed to recover for 7 days post-surgery. Animals without neurological deficits were placed in a plexiglass observation chamber on a metal mesh surface and mechanical thresholds of the plantar surface of the paw were determined using a Dynamic Plantar Aesthesiometer (Ugo Basile, Italy) as follows: Following acclimation, the touch stimulator unit was placed under the animal's paw such that the filament was positioned under the target area of the paw. The filament was then lifted such that it contacted the pad of the animal's paw and continually exerted an increasing upward force on the paw until the animal withdrew the paw. The paw withdrawal threshold was measured 5 times in this manner in turns and the mean of the 5 values was calculated. […] Three hours after the carrageenan administration, the threshold values were measured again.

[3] = system: isolated perfused rat hearts; assay: Ischemia-induced arrhythmias in isolated perfused rat hearts (LAD ligation)
Experimental: Male Sprague-Dawley rats (having a body weight of 250 to 300 g) were heparinized using sodium heparin (1,000 U/kg i.p.), followed 10 minutes later by introduction of anesthesia via intraperitoneal administration of sodium pentobarbital (40 mg/kg). Once the animal was anesthetized, the thorax was opened, and the heart was rapidly removed and perfused through the ascending aorta using Krebs-Ringer buffer consisting of NaCl (118 mmol/liter), KCl (4.75 mmol/liter), KH2PO4 (1.18 mmol/liter), MgSO4 (1.18 mmol/liter), CaCl2 (2.5 mmol/liter), NaHCO3 (25 mmol/liter), and glucose (11 mmol/liter). A mixture of 95% O2 and 5% CO2 at 37° C. was bubbled through the perfusate. The heart was initially perfused at a constant pressure of 70 mm Hg. About 10 min after the constant pressure perfusion, perfusion was switched to constant flow perfusion achieved using a microtube pump. The perfusion pressure was maintained at the same level of constant pressure perfusion by adjusting flow rate. Once the flow rate was determined, it was maintained throughout the experiment. The hearts were stimulated by rectangular pulses at a rate of 5 Hz and 2-millisecond duration and twice the diastolic threshold, delivered from a stimulus isolation unit (ADInstruments Ltd, Australia). Rat hearts were perfused at constant pressure of 70 mmHg without pacing as described above. Bipolar epicardial electrocardiogram (ECG) was recorded by placing two electrodes on the surface of right appendage and apex. A stainless steel cannula was used as indifferent electrode. The ECG and heart rate were continuously monitored and data were recorded using a PowerLab data acquisition system (ADInstruments Ltd, Australia) in conjunction with a Macintosh computer, and analyzed using Chart.3 computer package. After a 20-minute equilibration period, regional ischemia was induced by ligation of the left anterior descending (LAD) coronary artery, and the ligature was released 30 minutes after occlusion. […] The incidences of ventricular tachycardia (VT) were almost same in control non-treated (12/12) and in treated hearts (20/22). […]

BALB/C mice = assay: Allodynia in streptozotocin model of diabetic neuropathy; assay type: in vivo, mouse; conditions: 1 mg/kg; 15, 30, 60 min after administration
Experimental: BALB/C mice (6-8 weeks of age) were intraperitoneally administered streptozotocin (40 mg/kg, once per day for 5 consecutive days) to induce diabetes (blood glucose levels were greater than […]).

adult male Wistar rats = assay: Effect on heart rate in anesthetized rats; assay type: in vivo, rat
From the text: Adult male Wistar rats (each weighing from about 350 g to about 400 g) were anesthetized as in Example 19, then prepared for monitoring of blood pressure and heart rate.

male CD rats = assay: Sciatic nerve ligation allodynia, Von Frey Hair test; assay type: in vivo, rat
Experimental: The rats were then anesthetized via intraperitoneal administration of sodium pentobarbital (50 mg/kg). A skin incision was made at the upper ⅓ and ⅔ left thigh area of each rat and the left sciatic nerve was exposed and freed from the surrounding connective tissue. An 8-0 nylon suture was then used to tightly ligate the left sciatic nerve of each rat so that the dorsal ⅓ to ½ of the nerve thickness was trapped in the ligature. The incision was closed using 4-0 sterile suture.

male BALB/c mice [4] = assay: Lipopolysaccharide-induced cytokine production (septic shock model); assay type: in vivo, mouse; conditions: 0.03 mg/kg orally 30 min before LPS 1 mg/kg i.p.; measured 90 min after LPS
Experimental: (§3) Male BALB/c mice (6-8 weeks of age) were used in studies investigating lipopolysaccharide-induced cytokine production and survival. […] Serum was diluted 1:5 prior to being assayed for cytokines using species-specific ELISA kits (R & D Systems) for the chemokine MIP-1α and the cytokine TNF-α levels, which were expressed as pg/mL. […] The survival of the mice was followed over 72 h and expressed as a percentage of surviving mice at each time point. […] N=12-14 per group.

male BALB/c mice [5] = assay: Lipopolysaccharide-induced mortality, survival study; assay type: in vivo, mouse; conditions: 0.03 mg/kg orally 30 min before LPS 55 mg/kg i.p.; followed over 72 h
Experimental: as §3

male mice [6] = assay: Acute pain model, tail flick assay; assay type: in vivo, mouse; conditions: 3 mg/kg i.p.
Experimental: The analgesic effects in mice was measured using an IITC model 33 tail-flick analgesia meter (IITC Inc., Woodland Hills, Calif.) at 0 minutes (baseline control), 5 minutes, 15 minutes, 30 minutes and 60 minutes (in some cases also 90 and 120 minutes) post-treatment. compound or vehicle treatment. Average recoding value of two readings was used for each time point. A baseline for every mouse between 2-4 seconds of latency and a 10-second cut-off time was set for the maximum possible effect of analgesia (% MPE). % MPE was calculated using the following formula: % MPE=[(post-drug value−baseline)/(cut-off time−baseline)]×100.

male mice [7] = assay: Formalin pain model; assay type: in vivo, mouse; conditions: 1.0 mg/kg i.p.
Experimental: Male mice (each having a body weight of 20-30 g) were subcutaneously administered 20 μl of a 1% formalin solution in formaldehyde (prepared by diluting a commercial 4% [w/v] stock formalin solution) into the dorsal region of their left hind paw. […] Both groups of animals were monitored for a reaction for 30 minutes post-treatment to determine how much time each animal spends licking the treated paw. The licking time in control group (vehicle pretreated animals) was then compared to the licking time in the treatment group in order to calculate the analgesic effect. The 30 minute reaction period was divided into two phases: an early phase which lasts from 0-5 minutes post-treatment, and a late phase which lasts from 10-30 minutes post-treatment.

[8] = system: isolated perfused rat hearts; assay: Function recovery after global ischemia/reperfusion in isolated perfused rat hearts; conditions: 1 nM, infused 10 min before 30 min no-flow ischemia, 40 min reperfusion
Experimental: Male Sprague-Dawley rats (having a body weight of 250 to 300 g) were heparinized using sodium heparin (1,000 U/kg i.p.), followed 10 minutes later by introduction of anesthesia via intraperitoneal administration of sodium pentobarbital (40 mg/kg). Once the animal was anesthetized, the thorax was opened, and the heart was rapidly removed and perfused through the ascending aorta using Krebs-Ringer buffer consisting of NaCl (118 mmol/liter), KCl (4.75 mmol/liter), KH2PO4 (1.18 mmol/liter), MgSO4 (1.18 mmol/liter), CaCl2 (2.5 mmol/liter), NaHCO3 (25 mmol/liter), and glucose (11 mmol/liter). A mixture of 95% O2 and 5% CO2 at 37° C. was bubbled through the perfusate. The heart was initially perfused at a constant pressure of 70 mm Hg. About 10 min after the constant pressure perfusion, perfusion was switched to constant flow perfusion achieved using a microtube pump. The perfusion pressure was maintained at the same level of constant pressure perfusion by adjusting flow rate. Once the flow rate was determined, it was maintained throughout the experiment. The hearts were stimulated by rectangular pulses at a rate of 5 Hz and 2-millisecond duration and twice the diastolic threshold, delivered from a stimulus isolation unit (ADInstruments Ltd, Australia). Rat hearts were initially perfused at a constant pressure of 70 mm Hg using the procedure described above in section 6.12.1. […]

[9] = biological target: human recombinant A1 adenosine receptor (Homo sapiens (Human), UniProt P30542); assay: Adenosine A1 receptor binding, displacement of [3H]CCPA; conditions: for pKi: displacement of specific [3H]CCPA binding, CHO cells, geometric mean; for selectivity for the adenosine A1 receptor: versus human A2A and A3 receptors, Table 1
Sequence of human recombinant A1 adenosine receptor (P30542 whole entry): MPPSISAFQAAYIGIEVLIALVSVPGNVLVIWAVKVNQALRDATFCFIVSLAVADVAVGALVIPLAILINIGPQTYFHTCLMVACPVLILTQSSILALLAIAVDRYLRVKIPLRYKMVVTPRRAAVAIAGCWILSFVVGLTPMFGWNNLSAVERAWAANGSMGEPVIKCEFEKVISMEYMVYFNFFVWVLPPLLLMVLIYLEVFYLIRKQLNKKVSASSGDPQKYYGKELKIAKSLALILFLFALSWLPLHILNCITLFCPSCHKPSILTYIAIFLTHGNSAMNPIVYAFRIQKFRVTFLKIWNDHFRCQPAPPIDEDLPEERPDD
Experimental: as §1
The affinities of selected Purine Derivatives for the adenosine A1 receptor were determined by measuring the displacement of specific [^3H]
as §2

Sequence of human recombinant A2A adenosine receptor (P29274 whole entry): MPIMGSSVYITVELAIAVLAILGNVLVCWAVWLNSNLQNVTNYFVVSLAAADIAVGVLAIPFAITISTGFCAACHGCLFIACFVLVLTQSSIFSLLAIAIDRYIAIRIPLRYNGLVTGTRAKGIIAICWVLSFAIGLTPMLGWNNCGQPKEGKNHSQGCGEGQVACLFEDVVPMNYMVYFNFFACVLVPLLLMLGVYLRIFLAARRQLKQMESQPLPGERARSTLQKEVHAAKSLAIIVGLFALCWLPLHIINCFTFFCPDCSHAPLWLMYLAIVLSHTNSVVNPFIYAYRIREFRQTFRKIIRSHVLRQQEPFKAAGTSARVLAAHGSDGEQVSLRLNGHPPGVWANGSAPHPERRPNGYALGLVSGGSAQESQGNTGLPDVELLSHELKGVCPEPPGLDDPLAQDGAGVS

O=[N+]([O-])OC[C@H]1O[C@@H](n2cnc3c(NC4CCCC4)nc(Cl)nc32)[C@H](O)[C@@H]1O [Compound 16]
pKi [1]: 5.38

O=[N+]([O-])OC[C@H]1O[C@@H](n2cnc3c(NC4CCCC4)ncnc32)[C@H](O)[C@@H]1O [Compound 17]
pKi [2]: 6.15 | paw withdrawal (pain) threshold (male Wistar rats): effective for raising the pain threshold | total duration of both VT and VF ([3]; 30 and 100 pM): significantly shortened | incidence of ventricular fibrillation (VF) ([3]; treated hearts (2/22), 10, 30 and 100 pM, non-treated 58% (7/12)): 9% | incidence of ventricular tachycardia (VT) ([3]; treated hearts, 10, 30 and 100 pM, non-treated 12/12): 20/22 | analgesic effect on allodynia (BALB/C mice): marked and lasting analgesic effect | heart rate (adult male Wistar rats; 10 ng/kg/minute i.v. for 20 minutes, lowered from 440 beats per minute): 370 beats per minute | heart rate (adult male Wistar rats; 1000 ng/kg/minute i.v. for 20 minutes, reduced from 440 beats per minute): 150 beats per minute | analgesic effect on allodynia, alone (male CD rats; 0.1 mg/kg alone): exerts an analgesic effect | analgesic effect on allodynia, in combination with buprenorphine (male CD rats; 0.1 mg/kg co-administered with buprenorphine 0.3 mg/kg): exerts an analgesic effect | lipopolysaccharide-induced plasma MIP-1α production (male BALB/c mice [4]): reduces | lipopolysaccharide-induced plasma TNF-α production (male BALB/c mice [4]): reduces | lipopolysaccharide-induced mortality (male BALB/c mice [5]): reduces | analgesic effect, tail flick (% MPE) (male mice [6]): exerts a analgesic effect | analgesic effect, paw licking time, late phase (10-30 min) (male mice [7]): exhibits an analgesic effect during the late phase | response in first phase of formalin test (male mice [7]; early phase 0-5 min): no response | pKi [1]: 5.33 | +dp/dtmax (maximal rate of development of left ventricular pressure) [8]: significantly improved

Nc1ncnc2c1ncn2[C@@H]1O[C@H](CO[N+](=O)[O-])[C@@H](O)[C@H]1O [Compound 18]
pKi [2]: 6.67 | pKi [9]: 8.24 | selectivity for the adenosine A1 receptor [9]: selective for the adenosine A1 receptor | pKi [1]: 6.02

Nc1nc(Cl)nc2c1ncn2[C@@H]1O[C@H](CO[N+](=O)[O-])[C@@H](O)[C@H]1O [Compound 19]
pKi [2]: 6.05 | pKi [9]: 8.15 | selectivity for the adenosine A1 receptor [9]: selective for the adenosine A1 receptor | pKi [1]: 5.00

O=[N+]([O-])OC[C@H]1O[C@@H](n2cnc3c(NC4CCOC4)ncnc32)[C@H](O)[C@@H]1O (stereo partly drawn) [Compound 25]
pKi [2]: 5.69 | selectivity for the adenosine A1 receptor [9]: selective for the adenosine A1 receptor | pKi [1]: < 4.00
